{"source": "paper PMC11411704", "about": "“Gatekeeping Activity of Collinear Ketosynthase Domains Limits Product Diversity for Engineered Type I Polyketide Synthases” (Biochemistry, 2024)", "key": {"FabD": {"biological_target": "T1, FabD (Escherichia coli, UniProt P0AAI9)", "T1 sequence (P0AAI9 2-309)": "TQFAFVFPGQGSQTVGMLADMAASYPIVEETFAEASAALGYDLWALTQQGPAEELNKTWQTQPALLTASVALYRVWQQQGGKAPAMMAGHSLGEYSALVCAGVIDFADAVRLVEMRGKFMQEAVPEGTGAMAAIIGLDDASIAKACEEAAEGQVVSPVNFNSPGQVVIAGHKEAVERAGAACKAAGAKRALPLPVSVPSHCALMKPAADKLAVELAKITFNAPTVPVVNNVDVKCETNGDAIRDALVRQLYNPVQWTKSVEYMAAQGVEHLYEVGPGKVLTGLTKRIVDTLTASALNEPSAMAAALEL", "assay": "carrier protein acylation under triketide pyrone production conditions", "type": "biochemical", "details": "acceptor: PKS carrier protein domains"}, "[1]": {"biological_target": "T2, Plt module-1 (P1 PKS module-1) (Pseudomonas fluorescens, UniProt O51827)", "T2 construct": "gene pltB; module-1 only (KS-AT-CP) of the pyoluteorin PKS, wild-type AT; DEBS interdomain linkers used in the bimodular system; recombinant, purified; borders only in supplement", "T2 sequence (O51827 1-1030 limits assumed)": "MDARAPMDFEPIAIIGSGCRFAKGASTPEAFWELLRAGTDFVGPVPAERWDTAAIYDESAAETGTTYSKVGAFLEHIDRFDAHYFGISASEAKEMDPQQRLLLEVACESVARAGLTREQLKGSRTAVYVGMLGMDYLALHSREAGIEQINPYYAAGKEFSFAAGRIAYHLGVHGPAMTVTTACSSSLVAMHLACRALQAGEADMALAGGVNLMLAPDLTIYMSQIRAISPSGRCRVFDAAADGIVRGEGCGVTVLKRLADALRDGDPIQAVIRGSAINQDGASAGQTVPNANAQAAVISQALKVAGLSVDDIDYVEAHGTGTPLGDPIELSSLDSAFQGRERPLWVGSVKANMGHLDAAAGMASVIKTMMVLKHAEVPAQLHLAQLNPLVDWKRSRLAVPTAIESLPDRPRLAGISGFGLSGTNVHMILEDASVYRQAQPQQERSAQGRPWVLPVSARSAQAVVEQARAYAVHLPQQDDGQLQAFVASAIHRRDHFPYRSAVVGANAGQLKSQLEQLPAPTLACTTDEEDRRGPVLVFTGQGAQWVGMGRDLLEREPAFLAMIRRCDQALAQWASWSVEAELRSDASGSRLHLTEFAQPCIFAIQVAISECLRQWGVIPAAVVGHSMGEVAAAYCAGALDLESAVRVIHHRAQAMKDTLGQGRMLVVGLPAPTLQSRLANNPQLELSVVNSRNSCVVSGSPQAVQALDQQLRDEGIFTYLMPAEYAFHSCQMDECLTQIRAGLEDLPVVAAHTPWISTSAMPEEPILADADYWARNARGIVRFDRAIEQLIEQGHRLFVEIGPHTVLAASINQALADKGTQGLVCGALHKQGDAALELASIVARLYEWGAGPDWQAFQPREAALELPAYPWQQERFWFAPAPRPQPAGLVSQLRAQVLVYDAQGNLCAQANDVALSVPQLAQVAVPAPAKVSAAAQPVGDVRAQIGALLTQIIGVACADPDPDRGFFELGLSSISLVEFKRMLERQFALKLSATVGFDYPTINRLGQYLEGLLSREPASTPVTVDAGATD", "assay": "diketide formation, extender unit competition assay", "type": "biochemical", "details": "4,5-dichloropyrrolyl-SNAC as ketide substrate; equimolar Mal-CoA and MeMal-CoA made with MatB; product diketide 6"}}, "data": [{"smiles": "CCC(C(=O)O)C(=O)SCCNC(=O)CCNC(=O)[C@H](O)C(C)(C)COP(=O)(O)OP(=O)(O)OC[C@H]1O[C@@H](n2cnc3c(N)ncnc32)[C@H](O)[C@@H]1OP(=O)(O)O", "note": "(stereo partly drawn) [EtMal-CoA]", "values": [{"measurement": "carrier protein acylation under triketide pyrone production conditions", "setting": "FabD", "result": "FabD was also proficient in incorporating EtMal and PgMal extender units"}]}, {"smiles": "CC(C(=O)O)C(=O)SCCNC(=O)CCNC(=O)[C@H](O)C(C)(C)COP(=O)(O)OP(=O)(O)OC[C@H]1O[C@@H](n2cnc3c(N)ncnc32)[C@H](O)[C@@H]1OP(=O)(O)O", "note": "(stereo partly drawn) [MeMal-CoA]", "values": [{"measurement": "diketide formation, extender unit competition assay", "setting": "[1]", "result": "the Plt module-1 KS could efficiently use the MeMal extender unit for diketide production"}]}, {"smiles": "C#CCC(C(=O)O)C(=O)SCCNC(=O)CCNC(=O)[C@H](O)C(C)(C)COP(=O)(O)OP(=O)(O)OC[C@H]1O[C@@H](n2cnc3c(N)ncnc32)[C@H](O)[C@@H]1OP(=O)(O)O", "note": "(stereo partly drawn) [PgMal-CoA]", "values": [{"measurement": "carrier protein acylation under triketide pyrone production conditions", "setting": "FabD", "result": "FabD was also proficient in incorporating EtMal and PgMal extender units"}]}]}
